The subject of experiment [1] is human progesterone receptor altered at the Tau-1 location. In words: Co-transfection assay in CV-1 cells, progesterone receptor altered at Tau-1, antagonist activity. The class given is cell-based. The settings on record: for Efficacy (% maximal response relative to RU-486), CV-1 cells: antagonist activity; for pIC50: concentration required to reduce the maximal response by 50%, read-out: Potency (IC50), CV-1 cells. An excerpt: This assay is described in further detail in U.S. Pat. Nos. 4,981,784 and 5,071,773, which are incorporated herein by reference. The co-transfection assay provides a method for identifying functional ligands (either agonists which mimic, or antagonists which inhibit, the effect of hormones) for ligand-responsive receptor proteins.
The co-transfection assay provides a mechanism to evaluate ability of a compound to function as an agonist or antagonist of the activity modulated by an intracellular receptor. The co-transfection assay mimics an in vivo system in the laboratory. In the co-transfection assay, a cloned gene for an intracellular receptor is introduced by transfection (a procedure to induce cells to take up foreign genes) into a background cell substantially devoid of endogenous intracellular receptors. This introduced gene directs the recipient cells to make the intracellular receptor protein. A second gene is also introduced (co-transfected) into the same cells in conjunction with the intracellular receptor gene. This second gene functions as a reporter for the transcription-modulating activity of the target intracellular receptor. The reporter acts as a surrogate for the products normally expressed by a gene under control of the target receptor and its natural hormone.
A preferred reporter gene is one which expresses the firefly enzyme luciferase. The co-transfection assay can detect small molecule agonists or antagonists of target intracellular receptors. Exposing the cells to an agonist ligand increases reporter activity in the transfected cells that can be conveniently measured, reflecting ligand-dependent, intracellular receptor-mediated increases in reporter transcription. To detect antagonists, the co-transfection assay is carried out in the presence of a constant concentration of an agonist known to induce a defined reporter signal. Increasing concentrations of a test antagonist will decrease the reporter signal. The co-transfection assay is therefore useful to detect both agonists and antagonists of specific intracellular receptors. It determines not only whether a compound interacts with a particular intracellular receptor, but also whether this interaction mimics (agonizes) or blocks (antagonizes) the effects of the natural regulatory molecules on target gene expression.
Co-transfected cells are exposed to a medium to which is added the potential ligand that is being evaluated. If the candidate ligand diffuses into the cell and binds to the receptor and the resulting complex functions as an agonist, it binds to the co-transfected reporter gene and initiates transcription. When that gene is one that expresses, for example, luciferase, luciferase is produced which catalyzes a light-emitting reaction with its substrate luciferin. Thus, after cell lysis and the introduction of luciferin, the amount of light produced relative to the concentration of candidate ligand used in the assay provides a measure of the potency and efficacy of the compound tested. Antagonist activity is evaluated by adding the candidate ligand and a known agonist to the co-transfected cells.
The receptor cDNA was introduced in a mammalian expression vector under the control of the Rous Sarcoma virus LTR. […] A reporter vector was also transfected, containing a firefly luciferase gene under the control of the hormone-responsive promoter. […] The level of luciferase activity was then measured in cell extracts. Light emission is directly proportional to the effectiveness of the hormone-receptor complex in activating gene expression.
A total of three replicates per concentration point were tested for each compound, and the EC50 was calculated for each positive response. Both agonist and antagonist activity for each test compound was determined in parallel. […]

In experiment [2] the target is T1, human progesterone receptor (Homo sapiens, UniProt P06401).
T1 sequence (P06401 1-933): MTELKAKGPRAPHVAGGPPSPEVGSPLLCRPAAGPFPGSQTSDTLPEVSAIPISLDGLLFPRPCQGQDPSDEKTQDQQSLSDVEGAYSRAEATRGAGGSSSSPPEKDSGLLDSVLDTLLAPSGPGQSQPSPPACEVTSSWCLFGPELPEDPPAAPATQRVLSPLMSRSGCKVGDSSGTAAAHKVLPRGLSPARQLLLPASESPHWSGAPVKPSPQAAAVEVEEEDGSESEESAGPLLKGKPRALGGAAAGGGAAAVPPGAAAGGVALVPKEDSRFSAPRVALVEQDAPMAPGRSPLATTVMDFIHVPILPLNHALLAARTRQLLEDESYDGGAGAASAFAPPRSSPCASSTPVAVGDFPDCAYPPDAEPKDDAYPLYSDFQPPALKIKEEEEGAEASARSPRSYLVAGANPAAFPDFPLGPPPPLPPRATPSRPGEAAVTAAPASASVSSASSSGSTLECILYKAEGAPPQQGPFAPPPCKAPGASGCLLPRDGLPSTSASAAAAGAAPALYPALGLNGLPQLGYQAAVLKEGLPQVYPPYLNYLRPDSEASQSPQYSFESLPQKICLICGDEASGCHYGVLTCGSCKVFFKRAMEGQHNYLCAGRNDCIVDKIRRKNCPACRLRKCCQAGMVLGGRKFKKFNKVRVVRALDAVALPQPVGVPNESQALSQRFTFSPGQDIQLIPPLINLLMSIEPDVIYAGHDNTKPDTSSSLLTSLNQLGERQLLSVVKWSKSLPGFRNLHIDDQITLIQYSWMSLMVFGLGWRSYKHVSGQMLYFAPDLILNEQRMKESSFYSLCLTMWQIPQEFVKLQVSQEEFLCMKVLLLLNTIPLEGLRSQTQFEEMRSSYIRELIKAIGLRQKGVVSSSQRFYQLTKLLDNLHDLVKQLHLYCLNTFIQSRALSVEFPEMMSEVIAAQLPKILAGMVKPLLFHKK
Nature of the experiment: Progesterone receptor binding (displacement of 3H-progesterone, whole cell extract of transfected CV-1 cells). More on the design: expressed in transfected cells; host or cells: CV-1 cells (calcium phosphate transfection), whole cell extract. The procedure:
These tests were conducted according to the following illustrative example.
CO2 for 40 hours prior to harvest.
After incubation, cells were harvested and washed in phosphate buffered saline. Whole cell receptor extract was prepared by homogenizing the harvested cells in Tris-HCl buffer, pH=7.4, containing 30% glycerol, 1 mM EDTA, 12 mM monothioglycerol, 1 mM PMSF, and 0.5M potassium chloride. The homogenate was incubated at 4° C. for 60 min with resuspension every 10 min. The suspension was centrifuged (105,000×g, 60 min) and the supernatant was collected and flash frozen in liquid nitrogen and stored frozen at -70° C.
To a […] final volume incubation mixture, […] of 7.5% (w/v) dextran-coated charcoal suspension in gelatin phosphate buffer was added. The mixture was vortexed and incubated at 4° C. for 10 min and then centrifuged at 3000 rpm for 10 min. The amount of bound tritiated hormone was determined by liquid scintillation spectrophotometry of an aliquot of the supernatant. […]
On the technique in general: In a radioligand displacement assay an active substance lowers the binding of a labelled ligand.

For experiment [3], the system named is progesterone receptor (T47D cells). Nature of the experiment: Antagonist assay in T47D (human breast cancer) cells (Tables 1 and 2). The class given is cell-based. To be noted: for Efficacy (% maximal response relative to RU-486), T47D cells: antagonist activity; for pIC50: concentration required to reduce the maximal response by 50%, read-out: Potency (IC50), T47D cells. The source says:
The functional activities of the cyclocymopol analogues in the human breast cell line, T47D, were also investigated. T47D cells have proven to be a particularly useful model to investigate the molecular actions of sex steroids because they contain endogenous functional receptors for, and respond to, progestins, and their respective antagonists. […] In T47D cells, progestins induce de novo synthesis of a plasma-associated alkaline phosphatase, which has been reported to be similar, if not identical, to the alkaline phosphatase present in the normal breast and human milk. These tests were conducted according to the following illustrative example.
The assay was also run using T47D (human breast cancer) cells.

pIC50, pKd: −log10 of the molar value.

For the compound `C=C1C=C[C@@H](C)C(C)(C)[C@@H]1Cc1cc(OC)c(Br)cc1OC(C)=O` (relative stereo) [N, trans-1-Methylidene-6-(2'-acetoxy-4'-bromo-5'-methoxyphenyl)methyl-4,5,5-trimethylcyclohex-2-ene], in experiment [1], the “Efficacy (% maximal response relative to RU-486), CV-1 cells” value is 90% and the pIC50 (in general, −log10 of the IC50, conventionally taken in molar units) was 6.00. For the same compound, the pKd (commonly the negative decadic logarithm of the Kd, by convention in mol/L) in experiment [2] was 6.71. For the same compound, in experiment [3], the “Efficacy (% maximal response relative to RU-486), T47D cells” value was 70% and the negative-log IC50 (pIC50) was 6.49.
For `C=C1C[C@H](CCC2OCCO2)CC(C)(C)[C@@H]1Cc1cc(OC)c(Br)cc1O` (relative stereo) [W, cis-1-Methylidene-2-(2'-hydroxy-4'-bromo-5'-methoxyphenyl)methyl-3,3-dimethyl-5-(propanal-1,3-dioxolane)cyclohexane] the same measures were 85%, 5.54, 6.44, 85% and 6.42.
As to `C=C1C[C@H](CCCO)CC(C)(C)[C@@H]1Cc1cc(OC)c(Br)cc1O` (relative stereo) [X, cis-1-Methylidene-2-(2'-hydroxy-4'-bromo-5'-methoxyphenyl)methyl-3,3-dimethyl-5-(3-hydroxypropyl)cyclohexane], in experiment [1], the “Efficacy (% maximal response relative to RU-486), CV-1 cells” value was determined as 99% and the pIC50 was 5.96. Moreover, in experiment [2], the negative logarithm of the Kd (pKd) is 6.42. Besides, in experiment [3], the “Efficacy (% maximal response relative to RU-486), T47D cells” value is recorded as 84% and the pIC50 is 6.68.
On to `C=C1CCCC(C)(C)C1Cc1cc(OC)c(Br)cc1OC(C)=O` (stereo in doubt) [B, (3S)-1-Debromocyclocymopol monomethyl ether, acetate], for which, in experiment [1], the “Efficacy (% maximal response relative to RU-486), CV-1 cells” value was found to be 45% and the pIC50 was 6.40. Besides, the pKd in experiment [2] is 7.46. In experiment [3], the “Efficacy (% maximal response relative to RU-486), T47D cells” value was 65% and the pIC50 is 7.07.
For `C=C1CCCC(C)(C)C1Cc1cc(OC)c(Br)cc1OC(=O)OC` (stereo in doubt) [Compound D, (3S)-1-Debromocyclocymopol monomethyl ether, methyl carbonate] the same measures were 45%, 6.35, 7.30, 55% and 6.82.
For `C=C1CCCC(C)(C)C1Cc1cc(OC)c(Br)cc1OC(=O)OC` (stereo in doubt) [R, (3R)-1-Debromocyclocymopol monomethyl ether, methyl carbonate] the same measures were 95%, 5.91, 6.64, 85% and 6.60.
For the compound `C=C1CCCC(C)(C)C1Cc1cc(OC)c(Br)cc1OC(=O)c1ccccc1` (stereo in doubt) [U, (3R)-1-Debromocyclocymopol monomethyl ether, benzoate], in experiment [1], the “Efficacy (% maximal response relative to RU-486), CV-1 cells” value is on record as 95% and the pIC50 was 5.80. Besides, in experiment [2], the pKd was 6.72. In experiment [3], the “Efficacy (% maximal response relative to RU-486), T47D cells” value amounted to 80% and the pIC50 was 6.52.
Take `C=C1CCCCC1Cc1cc(OC)c(Br)cc1O` (stereo not drawn) [Compound S, 1-Methylidene-2-(2'-hydroxy-4'-bromo-5'-methoxyphenyl)methylcyclohexane]: in experiment [1], the “Efficacy (% maximal response relative to RU-486), CV-1 cells” value was found to be 90% and the negative logarithm of the IC50 (pIC50) is 5.82. Besides, in experiment [2], the pKd was 6.46. Moreover, in experiment [3], the “Efficacy (% maximal response relative to RU-486), T47D cells” value was determined as 85% and the pIC50 was 6.40.
For `COc1cc(CC2C(C)(C)CC(C)=CC23CC3)c(OC(C)=O)cc1Br` (stereo not drawn) [DD, 8-(2'-Acetoxy-4'-bromo-5'-methoxyphenyl)methyl-5,7,7-trimethylspiro[2.5]oct-4-ene] the same measures were 26%, 6.80, 6.98, 68% and 6.36.
For `C=C1[C@H](O)C[C@@H](Br)C(C)(C)[C@@H]1Cc1cc(OC)c(Br)cc1O` [E, (3R,5R)-5-Hydroxycyclocymopol monomethyl ether], in experiment [1], the “Efficacy (% maximal response relative to RU-486), CV-1 cells” value was 85% and the pIC50 was 6.35. Also, in experiment [2], the pKd is 6.03. Also, in experiment [3], the “Efficacy (% maximal response relative to RU-486), T47D cells” value worked out at 85% and the pIC50 was 6.32.
For `O=C1CCCCC1Cc1ccc([N+](=O)[O-])cc1` (stereo not drawn) [F, 2-(4'-Nitrophenyl)methylcyclohexan-1-one], in experiment [1], the “Efficacy (% maximal response relative to RU-486), CV-1 cells” value is 100% and the pIC50 was 6.26. For the same compound, the pKd in experiment [2] was 6.03. For the same compound, in experiment [3], the “Efficacy (% maximal response relative to RU-486), T47D cells” value is given as 80% and the pIC50 was 6.70.
`C=C1C=C(C)CC(C)(C)C1Cc1cc(OC)c(Br)cc1OC(C)=O` (stereo not drawn) [H, 1-Methylidene-6-(2'-acetoxy-4'-bromo-5'-methoxyphenyl)methyl-3,5,5-trimethylcyclohex-2-ene]: in experiment [1], the “Efficacy (% maximal response relative to RU-486), CV-1 cells” value came out at 40% and the pIC50 is 6.15. The pKd in experiment [2] was 7.22. Besides, in experiment [3], the “Efficacy (% maximal response relative to RU-486), T47D cells” value amounted to 60% and the pIC50 was 6.11.

Source of the values: patent publication US5808139A (Ligand Pharmaceuticals Incorporated, priority 1994, dated 1998).
